Experimental data as given in patent US20090246208A1, “METHODS FOR PREVENTING AND TREATING CANCER METASTASIS AND BONE LOSS ASSOCIATED WITH CANCER METASTASIS” (Novartis AG, priority 2006, published 2009).

B1: M-CSF (Q20A, V78K): double mutant of M-CSF testing solvent accessible residues in the central portion of helices A and C (protein, UniProt P09603 33-554, looked up, variant Q20A V78K)
Macrophage colony-stimulating …: EEVSEYCSHMIGSGHLQSLARLIDSQMETSCQITFEFVDQEQLKDPVCYLKKAFLLVQDIMEDTMRFRDNTPNAIAIKQLQELSLRLKSCFTKDYEEHDKACVRTFYETPLQLLEKVKNVFNETKNLLDKDWNIFSKNCNNSFAECSSQDVVTKPDCNCLYPKAIPSSDPASVSPHQPLAPSMAPVAGLTWEDSEGTEGSSLLPGEQPLHTVDPGSAKQRPPRSTCQSFEPPETPVVKDSTIGGSPQPRPSVGAFNPGMEDILDSAMGTNWVPEEASGEASEIPVPQGTELSPSRPGGGSMQTEPARPSNFLSASSPLPASAKGQQPADVTGTALPRVGPVRPTGQDWNHTPQKTDHPSALLRDPPEPGSPRISSLRPQGLSNPSTLSAQPQLSRSHSSGSVLPLGELEGRRSTRDRRSPAEPEGGPASEGAARPLPRFNSVPLTDTGHERQSEGSFSPQLQESVFHLLVPSVILVLLAVGGLLFYRWRRRSHQEPQRADSPLEQPEGSPLTQDDRQVELPV

Tests used:
[1] = test system: osteolytic damage caused by tumor growth at the bony site; experiment: Zometa dose-response study, osteolysis caused by tumor growth at the bony site (x-ray osteolysis score, FIG. 14); format: in vivo, mice
Excerpt: This Example establishes the dose-dependent, anti-resorptive effects of Zometa (zoledronate) in an animal model (FIG. 14). […] Osteolysis score based on x-ray image in last-day of study (FIG. 14):
(§1) 1=Equivocal or minimal lesion with normal cortex architecture;
(§2) 2=Definite lytic lesion with minimal cortex/architecture disruption
(§3) 3=Large lesion(s) with cortex/Architecture disruption
(§4) 4=Gross destruction with no preserved architecture

[2] = test system: osteoclasts differentiated from human bone marrow CD34+ cells; experiment: Differentiated osteoclast activity, OsteoLyse Assay Kit (Human Collagen) (FIGS. 18, 19); format: cell-based; settings: added on day 15, supernatant sampled on day 17
Description: The human bone marrow CD34+ cells (Biowhittaker catalog number 2M-101 A, 3×10^5 cells/vial) were induced to differentiate into osteoclasts under the experimental conditions described here. On Day 1, CD34+ cells were thawed from one frozen vial into 10 ml of media (Alpha MEM with 10% FCS, 1×Pen Strep and 1×fungizone) The cells were washed once and re-suspended in 2 ml of media and plate into onto the OsteoLyse plate (OsteoLyse™ Assay Kit (Human Collagen), Cambrex) at 100 ul per well. On day 2, without removing the original media, add to each well 50 ul of 4×CSF-1 to 30 ng/ml final concentration and 50 ul of 4×RANKL (sRANKL, Chemicon catalog #GF091, 10 ug/package) to final concentration of 100 ng/ml. On day 7, add to each well 50 ul of 5×RANKL to final concentration of 100 ng/ml. On day 15, antibodies (either Chir-RX1 or control antibody) or Zometa were added at the indicated concentrations. On day 17, 10 ul of supernatant of the cell culture was sampled and mixed with 200 μl of Fluorophore Releasing Reagent in each well of the black 96-well assay plate (included in the OsteoLyse Assay Kit).

[3] = test system: MDA-MB-231Luc cells; experiment: Combination study: intratibial MDA-MB-231Luc cells in Nu/Nu mice, Faxitron x-ray osteolysis scoring (FIGS. 15-17); format: in vivo
Description: Two weeks after intratibial inoculation of 6×10^5 MDA-MB-231Luc cells, Nu/Nu mice were treated with 5A1/5B4 (10 mg/kg once weekly), Zometa (0.03 mg/kg twice weekly) or both antibody and bisphosphonate. Bone lesions were monitored weekly by Faxitron analysis (x-ray technology), and at the end of the study, all animals were subjected to a final x-ray, and the images collected and distributed for scoring of the severity of lesions.
Mean osteolysis scores were calculated from 1) an average of scores from 3 separate volunteer scorers and 2) a group average (originally 10 animals/group).
Osteolysis score based on x-ray image in last day of study:
as §1, §2, §3, §4

[4] = test system: M-CSF biological activity; settings: cited from earlier work
[5] = test system: MCSF-R; settings: cited from earlier work

Row | Molecule | dose response of anti-resorptive effect ([1]; mice treated with increasing concentrations of Zometa) | osteolytic damage caused by tumor growth at the bony site (osteolysis score based on x-ray image) ([1]; ≧0.03 mg/kg Zometa, last day of study, FIG. 14) | differentiated osteoclast activity [2] | osteolytic damage caused by tumor growth at the bony site (mean osteolysis scores, FIG. 16) ([3]; 0.03 mg/kg Zometa, 10 mg/kg anti-MCSF antibody, combination regimen, last day of study) | treating osteolysis (single agents) ([3]; antibody 10 mg/kg once weekly, Zometa 0.03 mg/kg twice weekly, treatment from two weeks after inoculation) | severity of lesions in representative faxitron images (FIG. 17) ([3]; compared to untreated animals) | biological activity, lower than native M-CSF [4] | receptor-binding activity [5]
1 | O=P(O)(O)C(O)(Cn1ccnc1)P(=O)(O)O [Zometa, zoledronate] | a dose response effect was observed | inhibited the osteolytic damage | inhibits differentiated osteoclast activity in a dose-dependent manner | inhibited the osteolytic damage | effective in treating osteolysis | relatively minor lesions |  | 
2 | B1 |  |  |  |  |  |  | 8-10 fold | correspondingly lower
